Key:
[1] = tested on: locally advanced breast cancer; assay: phase II study with neoadjuvant docetaxel, clinical response (residual disease) after 4 cycles; format: in vivo, human
Text: From September 1999 to June 2001, patients with locally advanced breast cancer (primary cancers greater than 4 cm, or with clinically evident axillary metastases) were considered for a phase II study with neoadjuvant docetaxel. The inclusion criteria were 1) age greater than 18 years and a diagnosis of breast cancer confirmed by core needle biopsy, 2) premenopausal status accompanied by appropriate contraception, 3) adequate performance status, and 4) adequate liver and kidney function tests (all within 1.5 times the upper limit of normal). Exclusion criteria included 1) severe underlying chronic illness or disease, and 2) treatment with other chemotherapeutic drugs while on study.
Clinical staging and size of primary tumor was recorded at the start of treatment, at each cycle, and after completion of 4 cycles of chemotherapy. Tumor size (product of the two largest perpendicular diameters) measured before and after 4 cycles of neoadjuvant chemotherapy was used to compute the percentage of residual disease. The median residual disease was then calculated, and this degree of response was then used to divide the cancers into 2 groups of sensitive and resistant categories of approximately equal numbers before gene expression analysis.
Core biopsies of the primary cancers were undertaken before administration of single agent docetaxel as neoadjuvant treatment. Docetaxel at 100 mg/m2 was given every three weeks for a total of 4 cycles, and clinical response assessed after the fourth cycle, at 12 weeks. As the standard of care, patients were continued on neoadjuvant chemotherapy through the full 4 cycles unless there was clear documentation of progressive disease, defined as increase in tumor size of more than 25%. Primary surgery and standard adjuvant therapy was then administered following completion of neoadjuvant docetaxel. In order to maximize the likelihood of obtaining sufficient tissue, approximately six core biopsies using a Bard MaxCore Biopsy Instrument (#MC1410) were taken. Biopsies were performed under local anesthesia, using the same entry point, but reorienting the needle. Two to three core biopsy specimens were immediately transferred for snap freezing at −80° C. for cDNA array analysis. The remaining specimens were fixed in formalin for diagnostic and possible immunohistochemical analysis.
The clinical characteristics of the 24 patients enrolled in this phase II neoadjuvant study are included in Table 1. Before treatment, the median tumor size was 8 cm (range 4 to 30 cm). Prior to gene expression analysis, the sensitivity and resistance was defined based on the percentage of residual disease after treatment. It was determined that the median residual disease after chemotherapy was 30%. Then, it was arbitrarily defined that sensitive tumors were those with 25% residual disease or less and resistant tumors were those with greater than 25% residual disease, as this cut-off divides the numbers of patients almost equally into two groups for statistical comparison. In addition, the presenting tumors were large in this study of locally advanced breast cancer, and tumor regressions of at least 75% following chemotherapy would almost certainly represent clinically responsive disease.

[2] = tested on: HSP27-overexpressing cell lines; conditions: cited from earlier work
[3] = tested on: MDA-MB-23 1 breast cancer cell line; conditions: MDA-MB-23 1 cells overexpressing heat shock protein 27; cited from earlier work

SMILES	resistant tumors with residual tumors 100% or greater of baseline ([1]; 3/13 resistant tumors)	sensitive tumors with minimal residual disease (<10% residual tumor) ([1]; 5/11 sensitive tumors)	residual disease, independent cohort ([1]; 6 additional patients of the same clinical study, all 6 sensitive tumors)	resistant tumors with residual tumors ≧60% ([1]; 7/13 resistant tumors)	patients sensitive to docetaxel (25% residual disease or less) ([1]; 11 of 24 patients)	patients resistant to docetaxel (greater than 25% residual disease) ([1]; 13 of 24 patients)	median residual disease after chemotherapy ([1]; 24 patients, docetaxel 100 mg/m2 every three weeks, 4 cycles, tumor size after vs before, at 12 weeks)	sensitivity to docetaxel [2]	association of HSP27 overexpression with drug resistance [3]
CC(=O)O[C@@]12CO[C@@H]1C[C@H](O)[C@@]1(C)C(=O)[C@H](O)C3=C(C)[C@@H](OC(=O)[C@H](O)[C@@H](NC(=O)OC(C)(C)C)c4ccccc4)C[C@@](O)([C@@H](OC(=O)c4ccccc4)[C@H]21)C3(C)C [docetaxel]	23%	45%	less than 25%	58%	46%	54%	30%	remain sensitive	
COc1cccc2c1C(=O)c1c(O)c3c(c(O)c1C2=O)C[C@@](O)(C(=O)CO)C[C@@H]3O[C@H]1C[C@H](N)[C@H](O)[C@H](C)O1 [Adriamycin]									resistance

— patent publication US20040018527A1, “Differential patterns of gene expression that predict for docetaxel chemosensitivity and chemo resistance” (priority 2002, published 2004)
